The values that follow come from ChEMBL document CHEMBL1795337, “Sulfonamides incorporating boroxazolidone moieties are potent inhibitors of the transmembrane, tumor-associated carbonic anhydrase isoforms IX and XII” (Bioorg Med Chem Lett, 2011).

The assay addresses Carbonic anhydrase 9 (Homo sapiens, UniProt Q16790).
Description: Inhibition of human recombinant catalytic domain of carbonic anhydrase 9 preincubated for 15 mins by stopped-flow CO2 hydration assay
`CCB(CC)OC(=O)[C@@H](N)CCCCNC(=S)NCCc1ccc(S(N)(=O)=O)cc1`: the inhibition constant (Ki) was found to be 9.6 nM. The same measure for `CCB(CC)OC(=O)[C@@H](N)CCCCNC(=S)Nc1ccc(S(=O)(=O)NCc2ccc(S(N)(=O)=O)cc2)cc1`: 7.7 nM; for `CCB(CC)OC(=O)[C@@H](N)CCCCNC(=S)Nc1ccc(S(N)(=O)=O)cc1Br`: 92 nM; for `CCB(CC)OC(=O)[C@@H](N)CCCCNC(=S)Nc1cccc(S(N)(=O)=O)c1`: 9.5 nM.

`CCB(CC)OC(=O)[C@@H](N)CCCCNC(=S)Nc1ccc(S(N)(=O)=O)cc1` showed an inhibitory constant (Ki) of 9.3 nM.

`CCB(CC)OC(=O)[C@@H](N)CCCCNC(=S)Nc1ccc(S(N)(=O)=O)cc1F` displayed a Ki of 89 nM. `CCB(CC)OC(=O)[C@@H](N)CCCCNC(=S)Nc1ccc(S(=O)(=O)NCCc2ccc(S(N)(=O)=O)cc2)cc1` displayed a Ki of 9 nM. Then `CCB(CC)OC(=O)[C@@H](N)CCCCNC(=S)Nc1ccc(S(=O)(=O)Nc2nnc(S(N)(=O)=O)s2)cc1`, with 8.6 nM; and `CCB(CC)OC(=O)[C@@H](N)CCCCNC(=S)NCc1ccc(S(N)(=O)=O)cc1`, with 9.5 nM.

As to `CCB(CC)OC(=O)[C@@H](N)CCCCNC(=S)Nc1ccc(S(N)(=O)=O)cc1Cl`, the Ki was determined as 91 nM.

As a reminder, the Ki is the dissociation constant of the complex between target and ligand, obtained from inhibition or displacement. A high value points to lower affinity.
